Measured values: PubChem BioAssay (NCI)
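In this assay, cells in 96-well plates receive the compound at five concentrations for 48 hours. Endpoints are linearly interpolated between the surrounding concentrations. GI50 marks 50% less growth. Definition used: TGI = concentration required for complete inhibition of growth.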

Columns and labels:
Test in all cases: NCI tumour cell line growth inhibition, 48 h
[1] = system: HCC-2998 colon
[2] = system: 786-0 renal
[3] = system: A498 renal

Structure (SMILES) | TGI [1] [µM] | TGI [2] [µM] | TGI [3] [µM] | GI50 [3] [µM] | GI50 [1] [µM]
O=C(O)CN1CCCC(Cc2c[nH]c3ccccc23)C1 (configuration not stated) | > 100 |  |  |  | 
C/C(=N/NC(=S)Nc1cccc(Cl)c1)c1ccccn1 | 17.5 | 12.9 | 7.56 |  | 
CSc1c2c(C)n[nH]c2nn1-c1ccccc1 | > 100 | > 100 | > 100 |  | 
Oc1cc(Cl)cc2cc(Cl)cnc12 | 65.9 | > 100 | 34.5 |  | 
N#C/C(=C/n1c(=S)[nH]c2ccccc21)C(N)=O | > 100 | > 100 | > 100 |  | 
CC(C)(C)c1cc(C(=O)C2Cc3ccccc3C(=O)O2)cc(C(C)(C)C)c1O (configuration not stated) |  | 24.8 | 26.7 |  | 
N#C/C=c1/c2ccccc2n2nc3ccccc3c12 | > 100 | 19.8 | 70.3 |  | 
O=C1CCCCC/C1=C\c1cccc([N+](=O)[O-])c1 | 44 | > 100 | > 100 |  | 
O=C(CNc1nccs1)Nn1cnc2ccc(S(=O)(=O)Nc3nccs3)cc2c1=O | > 100 | > 100 |  |  | 
CCn1c(-c2ccc(OC)cc2)nc2c1C(=O)c1ccccc1C2=O | > 100 | > 100 |  |  | 
COC1=CC(=O)c2c(cc(COP(N)(=O)N(CCCl)CCCl)n2C)C1=O (configuration not stated) | 2.3 | 10.9 | 5.39 |  | 
Oc1cc(O)c2c(c1)O[C@H](c1cc(O)c(O)c(O)c1)[C@@H](O)C2 | > 10 | 32.8 | > 100 |  | 
C/C(=N/NC(=S)N(C)C)c1ccccc1O | > 100 | > 100 | 97.9 |  | 
CC(=O)NNC(=S)/N=C\c1c(O)c2ccccc2oc1=O | > 100 | > 100 | > 100 |  | 
C=C1C(=O)[C@]23C[C@H]1C[C@@H](O)[C@H]2[C@]1(COC3=O)[C@@H](OC(C)=O)CC[C@@](C)(COC(C)=O)[C@H]1C=O | > 50 | > 50 | > 50 |  | 
COc1ccc(OC)c(NC2=NCCO2)c1 | > 100 | > 100 | > 100 |  | 
O=C(OCC1CCCN2CCCCC12)c1cccnc1 (configuration not stated) | > 100 | > 100 | > 100 |  | 
CCOC(=O)CCC(NC(=O)c1ccc(Nc2nc3cc(C(F)(F)F)ccc3nc2C(=O)OCC)cc1)C(=O)OCC (configuration not stated) | > 100 | 5.5 |  |  | 

Structure (SMILES) | TGI [1] [µM] | TGI [2] [µM] | TGI [3] [µM] | GI50 [3] [µM] | GI50 [1] [µM]
COC(=O)c1ccccc1NC(=S)NN(C)C | > 100 | > 100 | > 100 |  | 
C[C@]12C(=O)C=CCC1=CC[C@@H]1[C@@H]2[C@H]2CC3(O)C(=O)O[C@@]4(C)[C@H]5C[C@@]6(C)[C@@H]7[C@@]2(O)[C@]1(OC[C@H]6C(=O)O5)O[C@]734 (some centres not stated) |  | > 100 | > 100 |  | 
CC(C)(C)c1ccc(O)c(C(c2ccc([N+](=O)[O-])cc2)c2cc(C(C)(C)C)ccc2O)c1 | 3.44 | 3.8 |  |  | 
Cc1nc2ccccc2c(=O)n1NC(=O)c1ccccc1[N+](=O)[O-] | > 100 | > 100 | > 100 |  | 
CC(C(=O)NCCNC(=O)CCC(=O)N(C)O)C(=O)NCCNC(=O)CCC(=O)N(C)O | > 100 |  | > 100 |  | 
O=C1C(C(c2ccc([N+](=O)[O-])cc2)N2CCOCC2)=C(O)C(c2ccccc2)N1c1ccccc1 (configuration not stated) | > 10 | > 10 | > 10 |  | 
Fc1ccc2[nH]cc(-c3nc(-c4c[nH]c5ccncc45)cs3)c2c1 | 3.49 |  | 3.43 | 1.98 | 1.92
CCCc1n[nH]c(=O)n1N1C(=O)C=CC1=O | > 100 | > 100 | > 100 |  | 
COC(=O)[C@H]1[C@@H](O)[C@@]2(O)c3c(OC)cc(OC)cc3O[C@@]2(c2ccc3c(c2)OCO3)[C@@H]1c1ccccc1 | 5.18 | 0.0944 | > 50 |  | 
Cc1ccc(S(=O)(=O)NC(=O)NCCc2ccc(O)c(O)c2)cc1 | > 100 | > 100 | > 100 |  | 
COc1ccc(N2CN(C)CSC2=S)cc1 | > 100 |  | > 100 |  | 
C=CC(C)(C)C1(CC(OC)OC)C(=O)N(C)c2ccccc21 (configuration not stated) | > 25 | > 25 | > 25 |  | 
O=C(/C=C/c1ccc2c(c1)OCO2)NCCc1ccco1 | > 100 |  |  |  | 
N/C(=N\S(=O)(=O)c1ccc(-c2ccccn2)s1)Nc1ccc(Cl)cc1 |  | 29.4 | 25.8 |  | 
O=C(NNS(=O)(=O)c1ccc(Br)cc1)c1ccc(Cl)cc1NC(=O)C12CC3CC(CC(C3)C1)C2 |  | 40 | 29 |  | 
Cc1nc(N)sc1C(=O)Nc1ncn[nH]1 | > 100 | > 100 |  |  | 
Cc1ccc2n(c1)cc(-c1ccc(/C=N/NC(=N)N/N=C/c3ccc(-c4cn5cc(C)ccc5[n+]4C)cc3)cc1)[n+]2C | > 100 | > 100 |  |  | 
c1ccc2[nH]c3c(N=NC4=NCCN4)c4ccccc4c-3nc2c1 | 14.9 | 22.4 |  |  | 
